Results from US11597706B2, “Compounds and compositions for treating conditions associated with NLRP activity” (Novartis AG, priority 2016, dated 2023).

Each compound was assayed against T1, hNLRP3 (THP-1, IL-1β) (Homo sapiens, UniProt Q96P20) (assay: IL-1β production in PMA-differentiated THP-1 cells stimulated with gramicidin). Conditions: Table 1, gramicidin 5 μM, IL-1β readout.
T1 construct: THP-1 cells were purchased from the American Type Culture Collection; host or cells: THP-1 cells, PMA-differentiated, stimulated with gramicidin
T1 sequence (Q96P20 whole entry): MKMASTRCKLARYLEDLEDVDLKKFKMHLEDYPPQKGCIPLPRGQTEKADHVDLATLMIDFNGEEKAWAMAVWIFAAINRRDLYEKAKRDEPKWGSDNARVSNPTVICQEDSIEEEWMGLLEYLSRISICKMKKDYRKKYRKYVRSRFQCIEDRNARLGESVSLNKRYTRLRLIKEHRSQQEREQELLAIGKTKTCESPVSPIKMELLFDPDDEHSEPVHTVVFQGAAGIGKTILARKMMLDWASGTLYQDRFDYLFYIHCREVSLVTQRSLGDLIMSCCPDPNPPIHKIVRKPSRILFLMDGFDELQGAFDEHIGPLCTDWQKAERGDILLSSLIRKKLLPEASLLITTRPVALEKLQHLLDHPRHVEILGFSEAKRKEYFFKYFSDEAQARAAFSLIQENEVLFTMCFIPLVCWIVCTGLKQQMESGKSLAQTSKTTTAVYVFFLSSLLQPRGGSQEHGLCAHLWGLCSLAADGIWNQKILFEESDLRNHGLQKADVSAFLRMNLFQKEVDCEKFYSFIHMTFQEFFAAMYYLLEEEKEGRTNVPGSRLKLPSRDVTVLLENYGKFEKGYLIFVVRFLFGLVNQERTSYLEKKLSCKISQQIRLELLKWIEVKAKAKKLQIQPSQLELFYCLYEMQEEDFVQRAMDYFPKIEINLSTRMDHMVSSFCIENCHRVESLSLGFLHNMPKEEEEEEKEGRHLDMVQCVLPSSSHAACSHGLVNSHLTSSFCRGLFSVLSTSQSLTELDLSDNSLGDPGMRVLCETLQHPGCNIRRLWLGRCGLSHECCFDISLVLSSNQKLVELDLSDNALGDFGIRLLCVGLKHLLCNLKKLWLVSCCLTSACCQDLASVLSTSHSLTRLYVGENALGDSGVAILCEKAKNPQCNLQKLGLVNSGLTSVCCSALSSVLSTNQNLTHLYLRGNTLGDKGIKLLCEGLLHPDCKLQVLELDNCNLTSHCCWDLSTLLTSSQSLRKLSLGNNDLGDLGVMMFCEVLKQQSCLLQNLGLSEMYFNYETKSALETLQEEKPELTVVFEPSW
Format: cell-based
Method: IL-1β Production in PMA-Differentiated THP-1 Cells Stimulated With Gramicidin.
Cell culture-THP-1 cells were purchased from the American Type Culture Collection and sub-cultured according to instructions from the supplier. Prior to experiments, cells were cultured in RPMI 1640 containing 10% heat inactivated FBS, penicillin (100 units/ml) and streptomycin (100 μg/ml), and maintained in log phase prior to experimental setup. Prior to the experiment THP-1 were treated with PMA (Phorbol 12-myristate 13-acetate) (10 μg/ml) for 24 hours. The day of the experiment the media was removed and attaching cells were treated with trypsin for 2 minutes, cells were then collected, washed with PBS (phosphate buffer saline), spin down, resuspended in 2% heat inactivated FBS with RPMI at a concentration of 1×10^6 cells/ml, and 100 μl was plated in a 96 well plate. Cells were incubated with compounds for 1 hours and then stimulated with Gramicidin (5 μM) (Enzo) for 2 hours. Cell free supernatant was collected and the production of IL-1β was evaluated by ELISA. Compounds were dissolved in dimethyl sulfoxide (DMSO) and added to the culture medium to achieve desired concentration (e.g. 100, 30, 10, 3, 1, 0.3 or 0.1 μM). A vehicle only control was run concurrently with each experiment. Final DMSO concentration was 1%.
THP-1 cells were purchased from the American Type Culture Collection and sub-cultured according to instructions from the supplier. Prior to experiments, cells were cultured in complete RPMI 1640 (containing 10% heat inactivated FBS, penicillin (100 units/ml) and streptomycin (100 μg/ml)), and maintained in log phase prior to experimental setup. Prior to the experiment THP-1 were treated with PMA (Phorbol 12-myristate 13-acetate) (20 ng/ml) for 16-18 hours. On the day of the experiment the media was removed and adherent cells were detached with trypsin for 5 minutes. Cells were then harvested, washed with complete RPMI 1640, spun down, resuspended in RPMI 1640 (containing 2% heat inactivated FBS, penicillin (100 units/ml) and streptomycin (100 μg/ml). The cells were plated in a 384-well plate at a density of 50,000 cells/well (final assay volume 50 μl). Compounds were dissolved in dimethyl sulfoxide (DMSO) and added to the culture medium to achieve desired concentration (e.g. 100, 33, 11, 3.7, 1.2, 0.41, 0.14, 0.046, 0.015, 0.0051, 0.0017 μM). Cells were incubated with compounds for 1 hour and then stimulated with gramicidin (5 μM) (Enzo) for 2 hours. Cell free supernatant was collected and the production of IL-1β was evaluated by HTRF (cisbio). A vehicle only control was run concurrently with each experiment. Final DMSO concentration was 0.38%.

Structure (SMILES) | IC50 [µM]
CC(C)c1cc(F)cc(C(C)C)c1NC(=O)NS(=O)(=O)c1cc(C#N)cc(C(C)(C)O)c1 [Compound 117, 3-cyano-N-(4-fluoro-2,6-diisopropylphenylcarbamoyl)-5-(2-hydroxypropan-2-yl)benzenesulfonamide] | < 1
CC(C)c1cccc(C(C)C)c1NC(=O)NS(=O)(=O)c1cc(C#N)cc(C(C)(C)O)c1 [Compound 115, 3-cyano-N-(2,6-diisopropylphenylcarbamoyl)-5-(2-hydroxypropan-2-yl)benzenesulfonamide] | < 1

The remaining lines, values ahead:

IC50 [µM] | Structure (SMILES)
< 1 | CC(C)c1cc(F)cc(C(C)C)c1NC(=O)NS(=O)(=O)c1cc(F)cc(C(C)(C)O)c1 [Compound 127, 3-fluoro-N-(4-fluoro-2,6-diisopropylphenylcarbamoyl)-5-(2-hydroxypropan-2-yl)benzenesulfonamide]
< 1 | CC(C)c1cc(F)cc(C(C)C)c1NC(=O)NS(=O)(=O)c1cc(Cl)cc(C(C)(C)O)c1 [Compound 123, 3-chloro-N-(4-fluoro-2,6-diisopropylphenylcarbamoyl)-5-(2-hydroxypropan-2-yl)benzenesulfonamide]
< 1 | CC(C)(O)c1ccc(F)c(S(=O)(=O)NC(=O)Nc2c3c(cc4c2CCC4)CCC3)c1 [Compound 131, 1-[[2-fluoro-5-(2-hydroxypropan-2-yl)benzene]sulfonyl]-3-(1,2,3,5,6,7-hexahydro-s-indacen-4-yl)urea]

Same assay, conditions: Table 2, gramicidin 5 μM, IL-1β readout

Structure (SMILES) | IC50 [µM]
COC(=O)c1cc(C(C)C)c(NC(=O)NS(=O)(=O)c2cccc(C(C)(C)O)c2)c(C(C)C)c1 [Compound 158, methyl 4-(3-(3-(2-hydroxypropan-2-yl)phenylsulfonyl)ureido)-3,5-diisopropylbenzoate] | 5 to 15
CC(C)c1ccc(F)c(C(C)C)c1NC(=O)NS(=O)(=O)c1cc(C#N)cc(C(C)(C)O)c1 [Compound 148, 3-cyano-N-(3-fluoro-2,6-diisopropylphenylcarbamoyl)-5-(2-hydroxypropan-2-yl)benzenesulfonamide] | 1 to 5
CC(C)c1cc(Cl)cc(C(C)C)c1NC(=O)NS(=O)(=O)c1cc(C#N)cc(C(C)(C)O)c1 [Compound 145, N-(4-chloro-2,6-diisopropylphenylcarbamoyl)-3-cyano-5-(2-hydroxypropan-2-yl)benzenesulfonamide] | < 1
CC(C)c1cc(F)cc(C(C)C)c1NC(=O)NS(=O)(=O)c1ccc(C(C)(C)O)cc1 [Compound 165, N-(4-fluoro-2,6-diisopropylphenylcarbamoyl)-4-(2-hydroxypropan-2-yl)benzenesulfonamide] | < 1
CC(C)c1ccc(F)c(C(C)C)c1NC(=O)NS(=O)(=O)c1ccc(C(C)(C)O)cc1 [Compound 170, N-(3-fluoro-2,6-diisopropylphenylcarbamoyl)-4-(2-hydroxypropan-2-yl)benzenesulfonamide] | 1 to 5

Other lines, results leading:

IC50 [µM] | Structure (SMILES)
< 1 | CC(C)(O)c1ccc(S(=O)(=O)NC(=O)Nc2c3c(c(Cl)c4c2CCC4)CCC3)cc1 [Compound 161, N-(8-chloro-1,2,3,5,6,7-hexahydro-sindacen-4-ylcarbamoyl)-4-(2-hydroxypropan-2-yl)benzenesulfonamide]
< 1 | CC(C)(O)c1ccc(S(=O)(=O)NC(=O)Nc2c3c(cc4c2CCC4)CCC3)cc1 [Compound 167, N-(1,2,3,5,6,7-hexahydros-indacen-4-ylcarbamoyl)-4-(2-hydroxypropan-2-yl)benzenesulfonamide]
< 1 | CC(C)(O)c1cc(C(C)(C)O)cc(S(=O)(=O)NC(=O)Nc2c3c(cc4c2CCC4)CCC3)c1 [Compound 143]
< 1 | CC(C)(O)c1ccc(S(=O)(=O)NC(=O)Nc2c3c(c(C#N)c4c2CCC4)CCC3)cc1 [Compound 164, N-(8-cyano-1,2,3,5,6,7-hexahydro-sindacen-4-ylcarbamoyl)-4-(2-hydroxypropan-2-yl)benzenesulfonamide]
